“And” between values parts separate entries of the source, which are not always exact repeats. Equal values may be shown once.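 GI50 is the concentration that inhibits growth by half. TGI denotes the concentration required for complete inhibition of growth.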
Experiments:
Assay in all cases: NCI tumour cell line growth inhibition, 384-well format
CCRF-CEM leukemia = tested on: CCRF-CEM leukemia
SNB-75 CNS = tested on: SNB-75 CNS
HL-60(TB) leukemia = tested on: HL-60(TB) leukemia
SK-OV-3 ovarian = tested on: SK-OV-3 ovarian
EKVX NSCLC = tested on: EKVX NSCLC
SR leukemia = tested on: SR leukemia
MDA-MB-468 breast = tested on: MDA-MB-468 breast
NCI/ADR-RES ovarian = tested on: NCI/ADR-RES ovarian
U251 glioblastoma = tested on: U251 glioblastoma
HCC-2998 colon = tested on: HCC-2998 colon
786-0 renal = tested on: 786-0 renal
ACHN renal = tested on: ACHN renal
SK-MEL-2 melanoma = tested on: SK-MEL-2 melanoma
HS 578T breast = tested on: HS 578T breast
OVCAR-4 ovarian = tested on: OVCAR-4 ovarian
PC-3 prostate = tested on: PC-3 prostate
OVCAR-3 ovarian = tested on: OVCAR-3 ovarian
SNB-19 CNS = tested on: SNB-19 CNS
COLO 205 colon = tested on: COLO 205 colon
A498 renal = tested on: A498 renal
SN12C renal = tested on: SN12C renal
KM12 colon = tested on: KM12 colon
HOP-92 NSCLC = tested on: HOP-92 NSCLC
OVCAR-5 ovarian = tested on: OVCAR-5 ovarian
HOP-62 NSCLC = tested on: HOP-62 NSCLC
SK-MEL-28 melanoma = tested on: SK-MEL-28 melanoma
MDA-MB-435 melanoma = tested on: MDA-MB-435 melanoma
MOLT-4 leukemia = tested on: MOLT-4 leukemia
NCI-H322M lung = tested on: NCI-H322M lung
CAKI-1 renal = tested on: CAKI-1 renal
BT-549 breast = tested on: BT-549 breast
RPMI-8226 leukemia = tested on: RPMI-8226 leukemia
UACC-257 melanoma = tested on: UACC-257 melanoma
M14 melanoma = tested on: M14 melanoma
UACC-62 melanoma = tested on: UACC-62 melanoma
SF-268 CNS = tested on: SF-268 CNS
SF-539 CNS = tested on: SF-539 CNS
NCI-H226 lung = tested on: NCI-H226 lung
LOX IMVI melanoma = tested on: LOX IMVI melanoma
NCI-H522 lung = tested on: NCI-H522 lung
A549 NSCLC = tested on: A549 NSCLC
DU-145 prostate = tested on: DU-145 prostate
RXF 393 renal = tested on: RXF 393 renal
HT29 colon = tested on: HT29 colon
MDA-MB-231 breast = tested on: MDA-MB-231 breast
MALME-3M melanoma = tested on: MALME-3M melanoma
SF-295 CNS = tested on: SF-295 CNS
NCI-H23 lung = tested on: NCI-H23 lung
K-562 leukemia = tested on: K-562 leukemia
OVCAR-8 ovarian = tested on: OVCAR-8 ovarian
T-47D breast = tested on: T-47D breast

CC(=O)c1c(C)c2cnc(Nc3ccc(N4CCNCC4)cn3)nc2n(C2CCCC2)c1=O
GI50 (CCRF-CEM leukemia): 191 nM | TGI (CCRF-CEM leukemia): 5.34 µM | TGI (SNB-75 CNS): 14.2 µM and > 100 µM | GI50 (HL-60(TB) leukemia): 81.1 nM and 37.9 nM | TGI (SK-OV-3 ovarian): 14.8 µM and > 100 µM | TGI (EKVX NSCLC): 15.4 µM and > 100 µM | GI50 (SR leukemia): 428 nM and 198 nM | TGI (SR leukemia): 3830 nM and 634 nM | TGI (MDA-MB-468 breast): 10.1 µM and > 100 µM | TGI (NCI/ADR-RES ovarian): 17.1 µM and > 100 µM | TGI (U251 glioblastoma): 12.2 µM and > 100 µM | TGI (HCC-2998 colon): 10.9 µM and > 100 µM | TGI (786-0 renal): 10.3 µM and > 100 µM | GI50 (ACHN renal): 976 nM and 3180 nM | GI50 (SK-MEL-2 melanoma): 9.24 µM | TGI (SK-MEL-2 melanoma): 16.2 µM | GI50 (HS 578T breast): 10.1 µM and > 100 µM | TGI (HS 578T breast): 17.2 µM and > 100 µM | GI50 (OVCAR-4 ovarian): 11.2 µM and > 100 µM | TGI (OVCAR-4 ovarian): 18.6 µM and > 100 µM | TGI (PC-3 prostate): 15.4 µM and > 100 µM | TGI (OVCAR-3 ovarian): 16.4 µM and > 100 µM | TGI (SNB-19 CNS): 13.9 µM and > 100 µM | TGI (COLO 205 colon): 11 µM and > 100 µM | TGI (A498 renal): 13.1 µM and > 100 µM | TGI (SN12C renal): 13.3 µM and > 100 µM | GI50 (KM12 colon): 713 nM and 388 nM | TGI (HOP-92 NSCLC): 15 µM and > 100 µM | TGI (OVCAR-5 ovarian): 12 µM and > 100 µM | TGI (HOP-62 NSCLC): 13.7 µM and > 100 µM | TGI (SK-MEL-28 melanoma): 13 µM and > 100 µM | TGI (MDA-MB-435 melanoma): 11.6 µM and > 100 µM | GI50 (MOLT-4 leukemia): 121 nM and 123 nM | TGI (MOLT-4 leukemia): 5.1 µM and 4.65 µM | TGI (NCI-H322M lung): 14.5 µM and > 100 µM | GI50 (CAKI-1 renal): 686 nM and 698 nM | TGI (BT-549 breast): 14.3 µM and > 100 µM | GI50 (RPMI-8226 leukemia): 422 nM | TGI (RPMI-8226 leukemia): > 100 µM | TGI (UACC-257 melanoma): 13.3 µM and > 100 µM | TGI (M14 melanoma): 11 µM and > 100 µM | TGI (UACC-62 melanoma): 11.4 µM and > 100 µM | TGI (SF-268 CNS): 13 µM and > 100 µM | TGI (SF-539 CNS): 16.7 µM and > 100 µM | TGI (NCI-H226 lung): 13.1 µM and > 100 µM | GI50 (LOX IMVI melanoma): 25.4 µM | TGI (LOX IMVI melanoma): > 100 µM | TGI (NCI-H522 lung): 15 µM and > 100 µM | TGI (A549 NSCLC): 10.8 µM and > 100 µM | TGI (DU-145 prostate): 14.6 µM and > 100 µM | GI50 (RXF 393 renal): 11.4 µM and > 100 µM | TGI (RXF 393 renal): 18.7 µM and > 100 µM | TGI (HT29 colon): 12.1 µM and > 100 µM | TGI (MDA-MB-231 breast): 14.4 µM and > 100 µM | TGI (MALME-3M melanoma): 11.2 µM and > 100 µM | TGI (SF-295 CNS): 13.7 µM and > 100 µM | TGI (NCI-H23 lung): 15.1 µM and > 100 µM | GI50 (K-562 leukemia): 2640 nM | TGI (K-562 leukemia): 9.38 µM | TGI (OVCAR-8 ovarian): 16.4 µM and > 100 µM | TGI (T-47D breast): 14.8 µM and > 100 µM

Reference: PubChem BioAssay (NCI)
